Test results taken from patent US20170114049A1, “2,5-DISUBSTITUTED CYCLOPENTANE CARBOXYLIC ACIDS FOR THE TREATMENT OF RESPIRATORY TRACT DISEASES” (BAYER PHARMA AKTIENGESELLSCHAFT, priority 2014, published 2017).

What was measured:
[1] = target: T1, MMP-16 (Homo sapiens, UniProt P51512); assay: In vitro MMP-16 inhibition test; format: biochemical
T1 construct: purchased R&D Systems 1785-MP
Source text: (§1) The MMP-mediated amidolytic cleavage of a suitable peptide substrate leads to an increase in fluorescent light here too. The signal intensity of the fluorescent light is directly proportional to the enzyme activity. The active concentration of a test compound at which half the enzyme is inhibited (50% signal intensity of the fluorescent light) is reported as the […].
Recombinant MMP-16 (from R&D Systems, 1785-MP) is enzymatically activated in accordance with the manufacturer's instructions using recombinant furin (from R&D Systems, 1503-SE). 1 μl of the test compound to be analysed (as a solution in DMSO, suitable concentrations e.g. 1 nM to 30 μM) is pipetted into 24 μl of activated enzyme (final concentration e.g. 1 nM) in reaction buffer (50 mM Tris/HCl pH 7.5, 10 mM CaCl2, 150 mM NaCl, 0.05% Brij®-35) in a white 384-hole microtiter plate (MTP). The enzymatic reaction is started by adding the intramolecularly quenched Mca-Lys-Pro-Leu-Gly-Leu-Dpa(Dnp)-Ala-Arg-NH2 substrate (final concentration, for example, 5 μM; R&D Systems, ES-010), so as to result in a total test volume of 50 μl. The course of the MMP-16 reaction is measured by measuring the fluorescence intensity (excitation 320 nm, emission 410 nm) over a suitable period of time (for example over 120 min at a temperature of 32° C.).

[2] = target: T2, MMP-2 (Homo sapiens, UniProt P08253); assay: In vitro MMP-2 inhibition test; format: biochemical
T2 construct: purchased R&D Systems 902-MP
T2 sequence (P08253 110-660): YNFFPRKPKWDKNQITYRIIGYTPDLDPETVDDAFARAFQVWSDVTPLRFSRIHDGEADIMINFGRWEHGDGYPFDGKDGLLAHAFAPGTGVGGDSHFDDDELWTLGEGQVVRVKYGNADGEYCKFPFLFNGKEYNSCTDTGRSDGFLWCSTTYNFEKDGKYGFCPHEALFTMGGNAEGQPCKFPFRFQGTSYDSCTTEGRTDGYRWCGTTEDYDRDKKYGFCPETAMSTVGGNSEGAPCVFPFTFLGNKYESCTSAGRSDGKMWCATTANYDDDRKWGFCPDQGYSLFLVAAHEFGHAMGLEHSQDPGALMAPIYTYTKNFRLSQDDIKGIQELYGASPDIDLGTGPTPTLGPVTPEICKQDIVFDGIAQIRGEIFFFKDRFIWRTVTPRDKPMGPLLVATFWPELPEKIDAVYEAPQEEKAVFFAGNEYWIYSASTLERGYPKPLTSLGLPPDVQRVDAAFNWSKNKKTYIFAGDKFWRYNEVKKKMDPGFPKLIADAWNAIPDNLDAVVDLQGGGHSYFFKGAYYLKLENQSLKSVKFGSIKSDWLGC
Source text: as §1
Recombinant MMP-2 (from R&D Systems, 902-MP) is chemically activated in accordance with the manufacturer's instructions using APMA. 1 μl of the test compound to be analysed (as a solution in DMSO, suitable concentrations, for example, 1 nM to 30 μM) is pipetted into 24 μl of activated enzyme (final concentration, for example, 2 nM) in reaction buffer (50 mM Tris/HCl pH 7.5, 10 mM CaCl2, 150 mM NaCl, 0.05% Brij®-35) in a white 384-hole microtiter plate (MTP). The enzymatic reaction is started by adding the intramolecularly quenched Mca-Pro-Leu-Gly-Leu-Dpa(Dnp)-Ala-Arg-NH2 substrate (final concentration, for example, 10 μM; R&D Systems, ES-001), so as to result in a total test volume of 50 μl. The course of the MMP-2 reaction is measured by measuring the fluorescence intensity (excitation 320 nm, emission 410 nm) over a suitable period of time (for example over 120 min at a temperature of 32° C.).

[3] = test system: rat hepatocytes; assay: Hepatocyte assay for determination of metabolic stability; details: after incubation with rat hepatocytes
Method: Seven samples from the incubation solution are taken for the LC-MS analysis within a fixed time pattern, in order to determine the half-life (i.e. the degradation) of the particular compound. This half life is used to calculate various “Clearance” parameters (CL) and “Fmax” values (see below).
The CL and Fmax values are a measure of the phase 1 and phase 2 metabolism of the compounds in the hepatocytes. In order to minimize the influence of the organic solvent on the enzymes in the incubation batches, the concentration thereof is generally limited to 1% (acetonitrile) or 0.1% (DMSO).
For all species and breeds, a hepatocyte cell count in the liver of 1.1*10^8 cells/g of liver is expected.
The parameters calculated and the meanings thereof are: • Fmax well-stirred [%] maximum possible bioavailability after oral administration • Calculation: (1-CLblood well-stirred/QH)*100 • CLblood well-stirred [L/(h*kg)] calculated blood clearance (well-stirred model) • Calculation: (QH*CLintrinsic)/(QH+CL′intrinsic) • CL′intrinsic[ml/(min*kg)] maximum ability of the liver (of the hepatocytes) to metabolize a compound (assuming that the liver blood flow is not rate-limiting) • Calculation: CLintrinsic, apparent* species-specific hepatocyte count [1.1* 10^8/g liver]*species-specific liver weight [g/kg] • CL′intrinsic, apparent[ml/(min*mg)] normalizes the elimination constant by dividing it by the hepatocyte cell count x used (x*10^6/ml) • Calculation: kcl[1/min]/(cell count [x*10^6]/incubation volume [ml]) • (QH=species-specific liver blood flow).

T1 sequence (P51512 120-607): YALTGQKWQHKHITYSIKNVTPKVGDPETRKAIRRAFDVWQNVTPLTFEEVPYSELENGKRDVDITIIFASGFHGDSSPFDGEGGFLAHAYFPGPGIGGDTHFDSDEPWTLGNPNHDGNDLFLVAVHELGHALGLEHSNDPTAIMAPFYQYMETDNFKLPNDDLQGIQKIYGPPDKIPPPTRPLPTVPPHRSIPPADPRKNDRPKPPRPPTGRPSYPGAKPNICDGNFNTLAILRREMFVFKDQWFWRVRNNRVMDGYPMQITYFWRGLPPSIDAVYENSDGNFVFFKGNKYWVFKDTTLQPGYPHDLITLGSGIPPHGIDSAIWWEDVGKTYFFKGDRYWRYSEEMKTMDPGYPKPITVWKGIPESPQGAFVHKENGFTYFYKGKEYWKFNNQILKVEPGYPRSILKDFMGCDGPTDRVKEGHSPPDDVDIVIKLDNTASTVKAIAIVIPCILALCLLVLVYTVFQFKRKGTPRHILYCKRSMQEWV

| IC50 [1] [nM] | IC50 [2] [nM] | CLblood (calculated blood clearance, well-stirred) [3] [mL/min/kg] | Fmax (maximum possible bioavailability after oral administration, well-stirred) [3] [%] | Molecule |
| --- | --- | --- | --- | --- |
| 830 | 380 | – | – | O=C(O)[C@H]1[C@H](Cn2nnc3ccc(C(F)(F)F)cc3c2=O)CC[C@@H]1C(=O)c1ccc(OCC2CCOCC2)cc1 (racemic) [Example 7, (+/−)-(1RS,2SR,5RS)-2-{[4-Oxo-6-(trifluoromethyl)-1,2,3-benzotriazin-3(4H)-yl]methyl}-5-[4-(tetrahydro-2H-pyran-4-ylmethoxy)benzoyl]cyclopentanecarboxylic acid] |
| 940 | 44 | – | – | O=C(O)[C@@H]1[C@@H](Cn2nnc3ccccc3c2=O)CC[C@H]1C(=O)c1ccc(OCCC2CCOCC2)cc1 (single isomer, unassigned) [Example 5, (+)-(1RS,2SR,5RS)-2-[(4-Oxo-1,2,3-benzotriazin-3(4H)-yl)methyl]-5-{4-[2-(tetrahydro-2H-pyran-4-yl)ethoxy]benzoyl}cyclopentanecarboxylic acid] |
| 3800 | 510 | – | – | O=C(O)[C@@H]1[C@@H](Cn2nnc3ccc(C(F)(F)F)cc3c2=O)CC[C@H]1C(=O)c1ccc(OCCC2CCOCC2)cc1 (single isomer, unassigned) [Example 11, (+)-(1RS,2SR,5RS)-2-{[4-Oxo-6-(trifluoromethyl)-1,2,3-benzotriazin-3(4H)-yl]methyl}-5-{4-[2-(tetrahydro-2H-pyran-4-yl)ethoxy]benzoyl}cyclopentanecarboxylic acid] |
| 1500 | 140 | 17 | 75.7 | O=C(O)[C@H]1[C@H](Cn2nnc3ccccc3c2=O)CC[C@@H]1C(=O)c1ccc(OCC2CCOCC2)cc1 (stereo in doubt) [Example 1, (+/−)-(1RS,2SR,5RS)-2-[(4-Oxo-1,2,3-benzotriazin-3(4H)-yl)methyl]-5-[4-(tetrahydro-2H-pyran-4-ylmethoxy)benzoyl]cyclopentanecarboxylic acid] |

Second part, the molecule before the results:

| Molecule | IC50 [1] [nM] | IC50 [2] [nM] | CLblood (calculated blood clearance, well-stirred) [3] [mL/min/kg] | Fmax (maximum possible bioavailability after oral administration, well-stirred) [3] [%] |
| --- | --- | --- | --- | --- |
| Cc1ccc2nnn(C[C@@H]3CC[C@H](C(=O)c4ccc(OCCC5CCOCC5)cc4)[C@H]3C(=O)O)c(=O)c2c1 (racemic) [Example 19, (+/−)-(1RS,2SR,5RS)-2-[(6-Methyl-4-oxo-1,2,3-benzotriazin-3(4H)-yl)methyl]-5-{4-[2-(letrahydro-2H-pyran-4-yl)ethoxy]benzoyl}cyclopentanecarboxylic acid] | 2500 | 930 | – | – |
| O=C(O)[C@@H]1[C@@H](Cn2nnc3ccc(C(F)(F)F)cc3c2=O)CC[C@H]1C(=O)c1ccc(SCC2CCOCC2)cc1 (single isomer, unassigned) [Example 15, (+)-(1RS,2SR,5RS)-2-{[4-Oxo-6-(trifluoromethyl)-1,2,3-benzotriazin-3(4H)-yl]methyl}-5-{4-[(tetrahydro-2H-pyran-4-ylmethyl)sulphanyl]benzoyl}cyclopentanecarboxylic acid] | 760 | 330 | – | – |
| Cc1ccc2nnn(C[C@H]3CC[C@@H](C(=O)c4ccc(OCCC5CCOCC5)cc4)[C@@H]3C(=O)O)c(=O)c2c1 (single isomer, unassigned) [Example 20, (+)-(1RS,2SR,5RS)-2-[(6-Methyl-4-oxo-1,2,3-benzotriazin-3(4H)-yl)methyl]-5-{4-[2-(tetrahydro-2H-pyran-4-yl)ethoxy]benzoyl}cyclopentanecarboxylic acid] | 3100 | 300 | – | – |
| O=C(O)[C@@H]1[C@@H](Cn2nnc3ccccc3c2=O)CC[C@H]1C(=O)c1ccc(OCC2CCOCC2)cc1 (stereo in doubt) [Example 2, (+)-(1RS,2SR,5RS)-2-[(4-Oxo-1,2,3-benzotriazin-3(4H)-yl)methyl]-5-[4-(tetrahydro-2H-pyran-4-ylmethoxy)benzoyl]cyclopentanecarboxylic acid] | 550 | 60 | 7.33 | 89.5 |
| O=C(O)[C@H]1[C@H](Cn2nnc3ccccc3c2=O)CC[C@@H]1C(=O)c1ccc(OCCC2CCOCC2)cc1 (stereo in doubt) [Example 4, (+/−)-(1RS,2SR,5RS)-2-[(4-Oxo-1,2,3-benzotriazin-3(4H)-yl)methyl]-5-{4-[2-(tetrahydro-2H-pyran-4-yl)ethoxy]benzoyl}cyclopentanecarboxylic acid] | 7100 | 360 | – | – |
| O=C(O)[C@H]1[C@H](Cn2nnc3ccc(C(F)(F)F)cc3c2=O)CC[C@@H]1C(=O)c1ccc(OCCC2CCOCC2)cc1 (stereo in doubt) [Example 10, (+/−)-(1RS ,2S R,5RS)-2-{[4-Oxo-6-(trifluoromethyl)-1,2,3-benzotriazin-3(4H)-yl]methyl}-5-{4-[2-(tetrahydro-2H-pyran-4-yl)ethoxy]benzoyl}cyclopentanecarboxylic acid] | 1800 | 220 | – | – |
| (+)-(1RS,2SR,5RS)-2-{[4-Oxo-6-(trifluoromethyl)-1,2,3-benzotriazin-3(4H)-yl]methyl}-5-[4-(tetra-hydro-2H-pyran-4-ylmethoxy)benzoyl]cyclopentanecarboxylic acid [Example 8] | 280 | 140 | 4.83 | 93.1 |
